Article PMC10708954, “Exploring the Effect of Compound Glycyrrhizin and Silybinin on the Metabolism of Pexidartinib in Rats Based on CYP3A4 and CYP2C9” (Advances in Pharmacological and Pharmaceutical Sciences, 2023)
Read-outs that look alike come from different tables or passages of the source. One block for each compound: values may come before it.

Legend:
CYP2C9 = test: Western blot of CYP2C9 protein expression in rat liver
Procedure: (§1) The rats in all five groups were gavaged once a day for fourteen consecutive days. Groups E and G were gavaged with 150 mg/kg aqueous solution of silybinin (containing 21 mg/kg silybinin), groups F and H were gavaged with 13.5 mg/kg aqueous solution of compound glycyrrhizin (containing 4.5 mg/kg glycyrrhizin), and from the 15-days onwards, groups G and H were given 40 mg/kg of PXD per day for a total of 7-days, and equal amounts of saline were given to groups E and F. Group D was gavaged with equal amounts of saline until the end of the experiment. After gavage for 21 days, rats in each group were anesthetized with 10% urethane, and their fresh livers were snap-frozen in liquid nitrogen and stored at −80°C for subsequent experiments.
(§2) Fresh livers were removed at −80°C and weighed portions were homogenized in ep tubes with lysis buffer containing 0.1% PMSF. We prepared 12% SDS-PAGE routine gel, then each group took the corresponding protein samples and prestained Marker samples, 80 V constant voltage for 90 min, the voltage was adjusted to 120 V, and electrophoresis was continued for 30 min. […] Imaging was performed using Imgage-ProPlus 6.0 software and quantitative analysis was performed using Image J software.

[1] = Pharmacokinetics of PXD in rat plasma (HPLC-UV) after 14 days pretreatment with saline, silybinin or CG; format: in vivo, rats; conditions: for Cmax / Tmax / half-life / CL/F / Vd/F: rat, plasma, rats, n = 6, mean ± SD; for CL/F: read-out: CLz/F (converted); for Vd/F: read-out: Vz/F
Procedure: Group B was gavaged with silybinin aqueous solution 150 mg/kg (containing silybinin 21 mg/kg), group C was gavaged with compound glycyrrhizin aqueous solution 13.5 mg/kg (containing glycyrrhizin 4.5 mg/kg), and in contrast, group A was gavaged with an equal amount of saline. After 14-days of administration, three groups were given 40 mg/kg PXD. 0.5 mL of blood was taken from the caudal vein at 0.25, 0.50, 1.00, 2.00, 3.00, 4.00, 6.00, 8.00, 12.00, 24.00, and 48.00 h after being gavaged and added to EP tubes containing heparin, followed by centrifugation at 3500 rpm for 15 min, and finally the supernatant was stored at −20°C and stored for measurement.
The apparatus used in the chromatographic analysis of this work was an 1100 series high-performance liquid chromatography (product of Agilent, USA), which mainly included a vacuum degasser, a four-component infusion pump, an automatic sampler, a column temperature box, and a DAD detector. The fundamental steps were as follows. First of all, the chromatographic separation was carried out on a Venusil C18 column (4.6 mm × 250 mm, 5 μm). Subsequently, the analytes were thoroughly separated under the mobile phase water, acetonitrile, and 0.2% TFA (37 : 43 : 20).
After preparatory 2 ml EP tubes, 300 μL of plasma samples and 15 μL of 10 ng/ml of alpelisib working solution were pipetted separately, followed by 300 μL of 10% sodium carbonate solution, mixed well, and then 1.0 ml of ethyl acetate was included to sediment the proteins. The mixture was vortexed for 2.0 min and subsequently centrifuged at 3500 rpm for 20 min at 4°C. At last, 900 μL of the upper organic phase was transferred to a fresh EP tube, blown dry with an air stream at 50°C, and then redissolved with 100 μL of mobile phase, and 20 μL was sampled for the assay.
In the current study, the drug concentration of PXD in rat plasma was plotted versus the time curve as well as all the bar graphs using GraphPad Prism 8.0 software. Then, DAS (Drug And Statistics) 2.0 software (Shanghai University of Traditional Chinese Medicine, China) was employed to get the main pharmacokinetic parameters of the analytes in nonatrial mode. Then, a one-way analysis of variance (ANOVA) was performed using SPSS (statistical product and service solutions) 25.0 software, while finally, an independent samples t-test was applied to the comparison of major pharmacokinetic parameters between the two groups, where Tmax was tested using rank sum test. Statistical significance was indicated by P < 0.05.

CYP3A4 = test: Western blot of CYP3A4 protein expression in rat liver
Procedure: as §1, §2

[2] = group B (silybinin pretreatment) compared to group A, P < 0.01
[3] = group B (silybinin pretreatment) compared to group A, P < 0.05
[4] = group C (CG pretreatment) compared to group A, P < 0.05
[5] = po, 40 mg/kg, Group A (control: saline 14 days, then single oral 40 mg/kg PXD)
[6] = po, 40 mg/kg, Group B (silybinin aqueous solution 150 mg/kg, containing silybinin 21 mg/kg, 14 days, then single oral 40 mg/kg PXD)
[7] = Group C (compound glycyrrhizin aqueous solution 13.5 mg/kg, containing glycyrrhizin 4.5 mg/kg, 14 days, then single oral 40 mg/kg PXD)

SMILES: FC(F)(F)c1ccc(CNc2ccc(Cc3c[nH]c4ncc(Cl)cc34)cn2)cn1 [PXD, Pexidartinib]
effect of PXD on the protein expression of CYP2C9 (CYP2C9; rat, in vivo, 40 mg/kg): inducing effect
decrease of Vz/F [1, 2]: 31.78%
increase of AUC0⟶t [1, 2]: 28.97%
increase of AUC0⟶∞ [1, 2]: 26.74%
decrease of CLz/F [1, 3]: 20.69%
increase of Cmax [1, 3]: 20.72%
increase of Cmax ([1]; group C (CG pretreatment) compared to group A, P < 0.01): 36.25%
increase of AUC0⟶t [1, 4]: 20.98%
increase of AUC0⟶∞ [1, 4]: 21.22%
Cmax [1, 5]: 10800 ± 1140 ng/mL
Tmax [1, 5]: 4.33 ± 1.37 h
half-life [1, 5]: 9.83 ± 3.13 h
CL/F [1, 5]: 4.83 mL/min/kg
Vd/F [1, 5]: 4.09 ± 1.16 L/kg
Cmax [1, 6]: 13000 ± 1160 ng/mL
Tmax [1, 6]: 4.17 ± 0.98 h
half-life [1, 6]: 8.49 ± 3.3 h
CL/F [1, 6]: 3.83 mL/min/kg
Vd/F [1, 6]: 2.79 ± 1.03 L/kg
Cmax [1, 7]: 14700 ± 2390 ng/mL
Tmax [1, 7]: 4.1 ± 1.1 h
half-life [1, 7]: 5.23 ± 1.13 h
CL/F [1, 7]: 4.17 mL/min/kg
Vd/F [1, 7]: 1.81 ± 0.3 L/kg
effect of PXD on the protein expression of CYP3A4 (CYP3A4; 40 mg/kg PXD per day for 7 days after silybinin or CG): inducing effect

protein expression level of CYP2C9 (CYP2C9; rat liver, gavage 21 days, compared with the control group, P < 0.05 and P < 0.01): decreased
protein expression level of CYP3A4 (CYP3A4; gavage 21 days, compared with the control group, P < 0.05 and P < 0.01): decreased
SMILES: COc1cc(C2Oc3cc([C@H]4Oc5cc(O)cc(O)c5C(=O)[C@@H]4O)ccc3OC2CO)ccc1O (stereo partly drawn) [silybinin, Silybinin]
